These molecules were tested on HIV-1 (H9IIIB strain) (assay: Cell-based HIV infection assay using a reporter (Cell-Based), MT4-GFP cells). Conditions: Human immunodeficiency virus 1, MT4-GFP cells infected with HIV-1 H9IIIB; 50% normal human serum; mean of at least two independent experiments; read-out: Cell-based IP.
Description: Cell-Based HIV Infection Assay Using a Reporter (“Cell-Based”):
MT4-GFP cells contain a stably integrated HIV long terminal repeat promoter directing the transcription of green fluorescent protein (GFP). When HIV infects the cell, GFP is produced and the cell becomes green. MT4-GFP cells (250,000 cells/ml) were bulk-infected with HIV-1 (H9IIIB strain) at low multiplicity of infection (MOI) in RPMI media, supplemented with 10% FBS for 24 hours. Cells were then washed once in RPMI plus 10% FBS and resuspended in RPMI plus 50% normal human serum (NHS). Test compounds were serial-diluted in DMSO using an ECHO liquid dispenser. A control well included a combination of three HIV drugs (an inhibitor of HIV protease, integrase strand transfer and a non-nucleoside reverse transcriptase inhibitor; triple drug). The infected MT4-GFP cells were added to a 384-well poly-D-lysine coated black plate with clear bottom in which the diluted test compounds were placed. The cells were seeded in the plate at 8,000 cells per well and the final DMSO concentration was 0.4%. Infected cells were quantified at both 24 and 48 hours post incubation using an Acumen eX3 plate reader. Viral reproductive ratio (R0) was determined using the number of infected cells at 48 hours divided by the number of infected cells at 24 hours. Percent viral growth inhibition was calculated by [1−(R−Rtripledrug)/(RDMSO−Rtripledrug)]*100. Compound potency IP or IC50 was determined with use of a 4-parameter dose response curve analysis.
Work on `O=C(Nc1cccc(F)c1CC[C@H]1CNCCN1S(=O)(=O)c1ccccc1)[C@@H](O)C(c1ccccc1)c1ccccc1` (single isomer, unassigned) [Example 364] yielded an IC50 of 34 nM. With `O=C(Nc1cccc(F)c1CC[C@H]1CNCCN1S(=O)(=O)c1ccccc1)[C@H](O)C(c1ccccc1)c1ccccc1` (single isomer, unassigned) [Example 365] the IC50 was 68 nM. Molecule `COc1ccc([C@H](c2ccc(Cl)cc2)[C@H](N)C(=O)Nc2cccc(F)c2CC[C@H]2CNCC(C)N2S(=O)(=O)C2CC2)cn1` (stereo in doubt) [Example 152, (βS)-4-chloro-N-(2-{2-[(2S,6S)-1-(cyclopropylsulfonyl)-6-methylpiperazin-2-yl]ethyl}-3-fluorophenyl)-β-(6-methoxypyridin-3-yl)-L-phenylalaninamide] has an IC50 of 39 nM. For `N[C@H](C(=O)Nc1cncc(F)c1CC[C@H]1CNCCN1S(=O)(=O)c1ccccc1)C(c1cccc(F)c1)c1cccc(F)c1` [Example 4, (S)-2-Amino-N-(5-fluoro-4-(2-((S)-1-(phenylsulfonyl)piperazin-2-yl)ethyl)pyridine-3-yl)-3,3-bis(3-fluorophenyl)propanamide], the IC50 was 4.3 nM. In the case of `COC(=O)N[C@H](C(=O)Nc1cccc(F)c1CC[C@H]1CNCCN1S(=O)(=O)c1ccccc1)[C@@H](c1ccc(Cl)cc1)c1ccc(OC)nc1` [Example 5, Methyl ((1S,2S)-1-(4-chlorophenyl)-3-((3-fluoro-2-(2((S)-1-(phenylsulfonyl)piperizin-2-yl)ethyl)phenyl)amino)-1-(6-methoxypyridin-3-yl)-3-oxopropan-2-yl)carbamate], the IC50 is reported as 5.9 nM. In the case of `N[C@H](C(=O)Nc1cccc(F)c1CC[C@H]1CNCCN1S(=O)(=O)c1ccccc1)[C@@H](c1ccc(Cl)cc1)c1cncc(C(F)(F)F)c1` [Example 6, (2S,3S)-2-amino-3-(4-chlorophenyl)-N-(3-fluoro-2-(2-((S)-1-(phenylsulfonyl)piperazin-2-yl)ethyl)phenyl)-3-(5-(trifluoromethyl)pyridine-3-yl)propanamide], the IC50 is reported as 7.8 nM. In the case of `COC(=O)N[C@H](C(=O)Nc1cccc(F)c1CC[C@H]1CNC[C@H](C)N1S(=O)(=O)c1ccccc1)[C@@H](c1ccc(F)cc1)C1CCOCC1` [Example 7, Methyl ((2S,3R)-1-((3-fluoro-2-(2-((2S,6S)-6-methyl-1-(phenylsulfonyl)piperazin-2-yl)ethyl)phenyl)amino)-3-(4-fluorophenyl)-1-oxo-3-(tetrahydro-2H-pyran-4-yl)propan-2-yl)carbamate], the IC50 is reported as 6 nM. `COC(=O)N[C@H](C(=O)Nc1cncc(F)c1CC[C@H]1CNC[C@H](C)N1S(=O)(=O)c1ccccc1)[C@@H](c1ccc(Cl)cc1)C(C)C` [Example 8, Methyl ((2S,3R)-3-(4-chlorophenyl)-1-((5-fluoro-4-(2-((2S,6S)-6-methyl-1-(phenylsulfonyl)piperzin-2-yl)ethyl)pyridin-3-yl)amino)-4-methyl-1-oxopentan-2-yl)carbamate] was tested, and the IC50 was 9.8 nM. With `COc1ccc(S(=O)(=O)N2[C@@H](CCc3c(F)cncc3NC(=O)[C@@H](N)[C@@H](c3ccc(Cl)cc3)C3CCOCC3)CNC[C@@H]2C)cc1` [Example 9, (2S,3R)-2-Amino-3-(4-chlorophenyl)-N-(5-fluoro-4-(2-((2S,6S)-1-((4-methoxyphenyl)sulfonyl)-6-methylpiperazin-2-yl)ethyl)pyridin-3-yl)-3-(tetrahydro-2H-pyran-4-yl)propanamide] the IC50 was 7.1 nM. `C[C@H]1CNC[C@H](CCc2c(F)cccc2NC(=O)[C@@H](N)C(c2cccc(F)c2)c2cccc(F)c2)N1S(=O)(=O)c1ccccc1` [Example 10, (S)-2-Amino-N-(3-fluoro-2-(2-((2S,6S)-6-methyl-1-(phenylsulfonyl)piperazin-2-yl)ethyl)phenyl)-3,3-bis(3-fluorophenyl)propanamide] was tested, and the IC50 was 11 nM. `COC(=O)N[C@H](C(=O)Nc1cncc(F)c1CC[C@H]1CNC[C@H](C)N1S(=O)(=O)C1CC1)[C@@H](c1ccc(Cl)cc1)c1cccc(F)c1` [Example 11, Methyl ((1S,2S)-1-(4-chlorophenyl)-3-((4-(2-((2S,6S)-1-(cyclopropylsulfonyl)-6-methylpiperazin-2-yl)ethyl)-5-fluoropyridin-3-yl)amino)-1-(3-fluorophenyl)-3-oxopropan-2-yl)carbamate] showed an IC50 of 11 nM. Molecule `COC(=O)N[C@H](C(=O)Nc1cccc(F)c1CC[C@H]1CNC[C@H](C)N1S(=O)(=O)C1CC1)[C@@H](c1ccc(Cl)cc1)C1CCOCC1` [Example 12, Methyl (1R,2S)-1-(4-chlorophenyl)-3-(2-(2-((2S,6S)-1-(cyclopropylsulfonyl)-6-methylpiperazin-2-yl)ethyl)-3-fluorophenylamino)-3-oxo-1-(tetrahydro-2H-pyran-4-yl)propan-2-ylcarbamate] has an IC50 of 18 nM. `C[C@@H]1CNC[C@H](CCc2c(F)cncc2NC(=O)[C@@H](N)[C@@H](c2ccc(F)cc2)c2cc(F)cc(F)c2)N1S(=O)(=O)c1ccccc1` [Example 13, (βS)-β-(3,5-difluorophenyl)-4-fluoro-N-(5-fluoro-4-{2-[(2S,6R)-6-methyl-1-(phenylsulfonyl)piperazin-2-yl]ethyl}pyridin-3-yl)-L-phenylalaninamide] was tested, and the IC50 was 20 nM. `COc1ccc([C@H](c2ccc(Cl)cc2)[C@H](N)C(=O)Nc2cccc(F)c2CC[C@H]2CNC[C@@H](C)N2S(=O)(=O)c2ccccc2)cn1` [Example 14, (βS)-4-chloro-N-(3-fluoro-2-{2-[(2S,6R)-6-methyl-1-(phenylsulfonyl)piperazin-2-yl]ethyl}phenyl)-β-(6-methoxypyridin-3-yl)-L-phenylalaninamide] was tested, and the IC50 was 18 nM. `C[C@@H]1CNC[C@H](CCc2c(F)cncc2NC(=O)[C@@H](N)[C@@H](c2ccc(F)cc2)c2cc(F)cc(F)c2)N1S(=O)(=O)C1CC1` [Example 15, (βS)—N-(4-{2-[(2S,6R)-1-(cyclopropylsulfonyl)-6-methylpiperazin-2-yl]ethyl}-5-fluoropyridin-3-yl)-β-(3,5-difluorophenyl)-4-fluoro-L-phenylalaninamide] showed an IC50 of 18 nM.

Same assay, conditions: MT4-GFP cells infected with HIV-1 H9IIIB; 50% normal human serum; mean of at least two independent experiments; read-out: Cell-based IP
With `COC(=O)NC(C(=O)NC1CC1CC[C@H]1CNCCN1S(=O)(=O)c1ccccc1)C(c1ccc(F)cc1)c1ccc(F)cc1` (single isomer, unassigned) [Example 362] the IC50 was 76 nM. Work on `COC(=O)NC(C(=O)NC1CC1CC[C@H]1CNCCN1S(=O)(=O)c1ccccc1)C(c1ccc(F)cc1)c1ccc(F)cc1` (single isomer, unassigned) [Example 363] yielded an IC50 of 370 nM. Molecule `COC(=O)NC(C(=O)NC1CC(F)(F)CC1CC[C@H]1CNCCN1S(=O)(=O)c1ccccc1)C(c1ccc(F)cc1)c1ccc(F)cc1` (stereo in doubt) [Example 358, Methyl ((2R)-1-((4,4-difluoro-2-(2-((S)-1-(phenylsulfonyl)piperazin-2-yl)ethyl)cyclopentyl)amino)-3,3-bis(4-fluorophenyl)-1-oxopropan-2-yl)carbamate] has an IC50 of 160 nM. For `COC(=O)NC(C(=O)NC1CC(F)(F)CC1CC[C@H]1CNCCN1S(=O)(=O)c1ccccc1)C(c1ccc(F)cc1)c1ccc(F)cc1` (stereo in doubt) [Example 359, Methyl ((2R)-1-((4,4-difluoro-2-(2-((S)-1-(phenylsulfonyl)piperazin-2-yl)ethyl)cyclopentyl)amino)-3,3-bis(4-fluorophenyl)-1-oxopropan-2-yl)carbamate], the IC50 was 530 nM.

— patent publication US9840478B2 (MERCK SHARP & DOHME CORP., priority 2013, dated 2017)
